Data as given in ChEMBL document CHEMBL3507680, “University of Dundee, Gates Library screen for HepG2 cell viability”.

experiment: Human HepG2 cell viability assay in 384 well format; assay type: toxicity, cell-based; design: dose 125 nL, time 70.5 hour; cytotoxicity at 70.5 h: concentration not given beside the values; conditions: HepG2 cells, read-out: Inhibition

| Structure (SMILES) | cytotoxicity at 70.5 h [%] |
| --- | --- |
| O=C(CCc1cn[nH]c1)N1C[C@@H](CN2CCCCCC2)[C@@H](CO)C1 | -8.48 |
| CS(=O)(=O)N1CCN(c2cnnc(N3CCCC3)c2)CC1 | -12.9 |
| CCCNC(=O)c1cc2c(nc1O)CCC(C)C2 (configuration not stated) | 22.8 |
| CCc1cc(CNC(=O)c2cc(NC(=O)C(C)C)ccc2Cl)[nH]n1 | -9.06 |
| CC(C)(C)c1cccc(OCC(=O)NS(=O)(=O)c2cccnc2)c1 | 21.7 |
| CSC(C)C(=O)N1CCN(CC(C)(C)O)CC1 (configuration not stated) | -14 |
| COCCNC(=O)CCC1CCN(Cc2cccc(SC)c2)CC1 | 5.26 |
| O=C(NC1CCc2[nH]c(=O)ccc2C1)C1CCOCC1 (configuration not stated) | 13.7 |
| CC(C)Cc1noc(CN2CCN(CCO)CC2)n1 | -4.77 |
| COc1cccc(C2=CCN(CCN3CCCC3=O)CC2)c1 | -7.88 |
| O=C1CC2(CCSC2)C(=O)N1Cc1ncc(-c2cccc(F)c2)o1 (configuration not stated) | -1.19 |
| NC(=O)C1CN(C(=O)C2(c3ccc(F)cc3F)CCCC2)CCO1 (configuration not stated) | -1.48 |
| COc1cccc(CCCNC(=O)N2CCC(O)(C(F)(F)F)C2)c1 (configuration not stated) | -2.72 |
| CC(NC(=O)Nc1ccc(F)c(F)c1)c1nc[nH]n1 (configuration not stated) | -2.38 |
| CC(C)c1nn(C)c(N(C)C)c1CNC1CCCCNC1=O (configuration not stated) | -4.04 |
| CC(C(=O)N1CCCN(Cc2ccc(C#N)cc2)CC1)n1cccn1 (configuration not stated) | 1.6 |
| CC(C)CCc1noc(CN2CCCN(C(=O)c3ccco3)CC2)n1 | -0.918 |
| CCC1=N[C@@]2(CC[C@@H]3CN(S(=O)(=O)N(C)C)C[C@@H]32)C(=O)N1CC(C)C | -3.81 |
| CC(=O)N(C/C=C/c1ccccc1)CCO | 7.41 |

| Structure (SMILES) | cytotoxicity at 70.5 h [%] |
| --- | --- |
| Cc1noc(C)c1C(=O)N1CCSc2ccc(Cl)cc21 | 11.5 |
| COCCN1C[C@@H]2CN(c3cnccn3)C[C@@H]2C1=O | -10.9 |
| CCOc1ncccc1CNC(=O)Nc1ccccc1 | 16.2 |
| O=C(COC1CCCCC1)NS(=O)(=O)c1ccc2c(c1)OCCCO2 | 13.6 |
| Cc1cc(C[S+]([O-])CC(=O)NCc2cccc(Cl)c2)no1 (configuration not stated) | -10.3 |
| Cc1cccc(C(=O)N2CCC3(CCN(c4cnn(C)c4)C3=O)C2)n1 (configuration not stated) | -1.73 |
| CC(O)c1cn(C2CCN(C(=O)C3(C)CCN(C)CC3)CC2)nn1 (configuration not stated) | -10.9 |
| O=C(c1ccc2[nH]ccc2c1)N1Cc2nc(CN3CCCC3)oc2C1 | -5.17 |
| COc1cccc(C2SCC(=O)Nc3ccsc32)c1 (configuration not stated) | 0.777 |
| CCn1ncc(CN2CCC(O)(Cn3ccc4ncccc43)CC2)c1C | -1.63 |
| O=C(c1cnccn1)N1C[C@@H]2[C@@H](C1)OCC(=O)N2CC1CCCC1 | 1.12 |
| CN(C)C(=O)CCC(=O)N1CCC2(CC1)COC2 | 12.8 |
| Cc1cnc(CN2CCCC2c2noc(C3CC3)n2)cn1 (configuration not stated) | -6.3 |
| O=C(NCCc1noc(C2CCCO2)n1)c1cn2ccsc2n1 (configuration not stated) | -4.56 |
| CC(C)CNC(=O)c1ccc(NC(=O)NC(C)(C)CO)cc1Cl | -2.58 |
| COc1ccc(-n2nc(C3CC3)nc2CCn2cnnn2)cc1 | 26.8 |
| CC1CCN(CCNC(=O)C2CCN(S(N)(=O)=O)CC2)CC1 | -3.07 |
| COCCCN1C(=O)CC[C@H]2CN(Cc3ccc4nonc4c3)CC[C@H]21 | -5.42 |
| COc1cc(CNC(=O)C2CC(=O)N(C(C)C)C2)ccn1 (configuration not stated) | -16.6 |

| Structure (SMILES) | cytotoxicity at 70.5 h [%] |
| --- | --- |
| Cc1cc(S(=O)(=O)NCC2CNCCOC2)c(C)cc1Cl (configuration not stated) | 1.99 |
| Cc1cc(C)n(CCCN(C)c2cc(N(C)C)ncn2)n1 | -7.08 |
| CN1Cc2ccccc2CC2(CCN(CCO)CC2)C1=O | 18 |
| CC(=O)N1CCN(C(=O)c2ccc(Sc3ccccn3)cc2)CC1 | -14 |
| Cc1oncc1C(=O)N1C[C@H]2CCCC(N(C)Cc3cccs3)[C@H]2C1 (some centres not stated) | -8.63 |
| O=c1cc(-c2ccccc2)nc2n1CCCCC2 | 23.6 |
| CNC(=O)C1CN(C)CCN(C(=O)CCn2nnc3ccccc32)C1 (configuration not stated) | 0.266 |
| Cc1cnn(CCCNC(=O)NCCC(=O)Nc2ccccc2)c1 | -11.8 |
| Cc1ccc(NC(=O)N2CCN(Cc3noc(C4CC4)n3)CC2)cc1 | 27.4 |
| Cc1nc(N(CCC(N)=O)Cc2ccccc2)c2nc(C)oc2n1 | 9.6 |
| COc1cc(N2CCC3(CC2)CC(N2CCOCC2)CO3)ncn1 (configuration not stated) | -2.9 |
| Cc1cccc(C(C(=O)NC(C)(C)CN2CCCC2)N(C)C)c1 (configuration not stated) | -8.64 |
| Cc1nn(C)c(N2CCOCC2)c1CNC(C(N)=O)c1ccccc1 (configuration not stated) | 4.26 |
| Cc1cccc(-c2noc(CN3CCOCC3C)n2)c1 (configuration not stated) | -5.27 |
| Cc1nccn1CC1CCCN(C(=O)c2cnn(C)c2)C1 (configuration not stated) | -12.8 |
| CCCn1cc(NC(=O)c2ccc(N(C)CC)cc2)ccc1=O | -7.67 |
| CC(C)NC(=O)C1CN(Cc2cccs2)Cc2ccnn2C1 (configuration not stated) | 3.45 |
| CC(C)N(C)Cc1cc(=O)n2c(n1)CN(C(=O)c1cnccn1)CCC2 | 4.66 |
| COc1ccc(CNC2CCCN(Cc3noc(C)n3)C2)cc1F (configuration not stated) | 23.4 |
